Laboratory results published in ChEMBL document CHEMBL1201862, “PubChem BioAssay data set” (2004).
Calls of active or inactive are those of the source.

Key:
Beta-lactamase [1] = biological target: Beta-lactamase (Salmonella choleraesuis (strain SC-B67), UniProt Q5J463); assay: Epi-absorbance-based counterscreen for selective VIM-2 inhibitors: dose response biochemical high throughput screening assay to identify inhibitors of TEM-1 serine-beta-lactamase.
Beta-lactamase [2] = biological target: T1, Beta-lactamase (Pseudomonas aeruginosa, UniProt Q79MP6); assay: inhibition of IMP-1 beta-lactamase activity – biochemical, epi-absorbance, selectivity assay for VIM-2 inhibitor project, dose response (AID 1920)
T1 sequence (Q79MP6 whole entry): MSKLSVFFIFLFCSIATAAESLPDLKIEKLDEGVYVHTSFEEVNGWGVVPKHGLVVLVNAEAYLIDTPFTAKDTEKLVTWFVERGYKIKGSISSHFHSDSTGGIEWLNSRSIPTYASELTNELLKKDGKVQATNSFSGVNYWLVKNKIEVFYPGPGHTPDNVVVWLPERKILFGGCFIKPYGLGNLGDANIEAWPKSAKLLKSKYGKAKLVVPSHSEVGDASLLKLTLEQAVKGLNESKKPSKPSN

Beta Lactamase [3] = biological target: T2, Beta Lactamase (Pseudomonas aeruginosa, UniProt Q932Y6); assay: concentration-dependent VIM-2 enzyme inhibition – biochemical, epi-absorbance readout, selective inhibitors, dose response (AID 1919)
T2 sequence (Q932Y6 whole entry): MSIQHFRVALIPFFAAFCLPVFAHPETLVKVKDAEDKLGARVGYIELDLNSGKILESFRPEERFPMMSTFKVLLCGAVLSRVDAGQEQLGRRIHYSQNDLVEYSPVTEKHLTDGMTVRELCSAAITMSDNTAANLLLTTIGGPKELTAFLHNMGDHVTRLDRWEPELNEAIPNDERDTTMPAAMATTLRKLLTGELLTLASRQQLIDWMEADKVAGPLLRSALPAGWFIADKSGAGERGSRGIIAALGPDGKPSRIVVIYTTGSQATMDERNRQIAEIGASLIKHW

Beta-lactamase [4] = biological target: T1, Beta-lactamase; assay: […] counterscreen for selective VIM-2 inhibitors: dose response biochemical high throughput screening assay to identify inhibitors of IMP-1 metallo-beta-lactamase.
Beta Lactamase [5] = biological target: T2, Beta Lactamase; assay: VIM-2 CCF2 hydrolysis inhibition, assay artifact filter – biochemical, FRET readout, CCF2 substrate, artefact control for selective VIM-2 inhibitor project, dose response (AID 1926)
Bcl-2-like protein 10 = biological target: T3, Bcl-2-like protein 10 (Homo sapiens, UniProt Q9HD36); assay: Bcl-B/TR3 peptide binding disruption – biochemical, fluorescence polarization, FITC-TR3 peptide, selectivity assay for Bfl-1 inhibitor project, primary screen (AID 748);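 also: fluorescence polarization from a fluorescein-labelled TR3 peptide binding purified Bcl-B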
T3 sequence (Q9HD36 whole entry): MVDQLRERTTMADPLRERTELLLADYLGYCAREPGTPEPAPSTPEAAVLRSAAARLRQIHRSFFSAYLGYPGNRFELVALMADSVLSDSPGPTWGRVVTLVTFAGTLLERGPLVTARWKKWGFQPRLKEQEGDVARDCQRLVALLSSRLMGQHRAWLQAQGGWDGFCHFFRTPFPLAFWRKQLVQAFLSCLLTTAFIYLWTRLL

Estrogen receptor = Estrogen receptor (Homo sapiens, UniProt P03372);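 also: potency for inhibiting coactivator peptide recruitment to the receptor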
Sequence of Estrogen receptor (P03372 whole entry): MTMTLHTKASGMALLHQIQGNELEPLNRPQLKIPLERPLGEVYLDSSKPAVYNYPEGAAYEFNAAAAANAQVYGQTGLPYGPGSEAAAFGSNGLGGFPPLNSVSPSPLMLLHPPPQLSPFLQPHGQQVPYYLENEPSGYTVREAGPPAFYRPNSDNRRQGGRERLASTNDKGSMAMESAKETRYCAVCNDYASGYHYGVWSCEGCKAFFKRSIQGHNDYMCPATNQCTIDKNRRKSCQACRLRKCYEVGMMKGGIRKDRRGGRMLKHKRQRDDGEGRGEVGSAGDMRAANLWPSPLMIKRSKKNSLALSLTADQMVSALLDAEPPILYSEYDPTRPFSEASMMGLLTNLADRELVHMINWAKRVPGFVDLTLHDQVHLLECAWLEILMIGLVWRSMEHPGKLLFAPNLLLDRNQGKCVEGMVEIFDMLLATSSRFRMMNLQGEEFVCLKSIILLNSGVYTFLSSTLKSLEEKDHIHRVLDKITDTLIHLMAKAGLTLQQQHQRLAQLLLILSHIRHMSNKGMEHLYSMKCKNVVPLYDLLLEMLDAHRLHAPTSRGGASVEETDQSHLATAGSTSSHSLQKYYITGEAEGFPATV

Estrogen receptor beta [6] = biological target: T4, Estrogen receptor beta (Homo sapiens, UniProt Q92731);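 also: recombinant ER-beta bound to coactivator SRC1 peptide in presence of estradiol agonist; inhibitors block coactivator peptide binding and lower the FRET signal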
T4 sequence (Q92731 whole entry): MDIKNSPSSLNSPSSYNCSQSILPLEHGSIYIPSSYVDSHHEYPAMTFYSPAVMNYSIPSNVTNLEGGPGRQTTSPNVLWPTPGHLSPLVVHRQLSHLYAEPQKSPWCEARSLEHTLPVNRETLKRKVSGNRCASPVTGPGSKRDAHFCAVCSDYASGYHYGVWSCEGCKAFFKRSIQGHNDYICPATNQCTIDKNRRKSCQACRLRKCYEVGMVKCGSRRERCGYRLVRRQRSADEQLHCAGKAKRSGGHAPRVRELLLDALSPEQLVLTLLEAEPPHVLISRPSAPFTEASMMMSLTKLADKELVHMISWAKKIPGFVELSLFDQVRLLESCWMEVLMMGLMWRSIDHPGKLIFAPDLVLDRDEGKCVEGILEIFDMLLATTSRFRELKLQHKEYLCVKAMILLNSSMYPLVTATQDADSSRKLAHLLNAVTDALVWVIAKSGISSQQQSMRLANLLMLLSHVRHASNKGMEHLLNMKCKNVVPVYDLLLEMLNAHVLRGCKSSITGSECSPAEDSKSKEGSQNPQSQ

Estrogen receptor beta [7] = biological target: T4, Estrogen receptor beta; assay: blockers of SRC-3 recruitment to ERβ – biochemical, ELISA, streptavidin-HRP readout, orthogonal assay, confirmation (AID 1060)
[8] = biological target: T5, Carboxy-terminal domain RNA polymerase II polypeptide A small phosphatase 1 (Homo sapiens, UniProt Q9GZU7); assay: CTDSP1 inhibitors, concentration-response, biochemical, absorbance readout, ultra-high-throughput screen actives (AID 540297); format: functional
T5 sequence (Q9GZU7 whole entry): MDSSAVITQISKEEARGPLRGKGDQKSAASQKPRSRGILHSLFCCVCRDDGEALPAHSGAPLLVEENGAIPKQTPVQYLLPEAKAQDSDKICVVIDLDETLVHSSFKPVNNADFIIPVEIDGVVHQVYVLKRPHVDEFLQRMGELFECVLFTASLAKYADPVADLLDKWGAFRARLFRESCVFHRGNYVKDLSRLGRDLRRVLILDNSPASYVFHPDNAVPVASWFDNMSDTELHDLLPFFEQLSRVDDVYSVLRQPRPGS

[9] = biological target: Tyrosine-protein phosphatase non-receptor type 11 (Homo sapiens, UniProt Q06124); assay: PTPN11 enzyme inhibitors – biochemical, selectivity assay for STEP inhibitor project, dose response (AID 602367); format: functional; conditions: read-out: IC50_Mean
Sequence of Tyrosine-protein phosphatase non-receptor type 11 (Q06124 whole entry): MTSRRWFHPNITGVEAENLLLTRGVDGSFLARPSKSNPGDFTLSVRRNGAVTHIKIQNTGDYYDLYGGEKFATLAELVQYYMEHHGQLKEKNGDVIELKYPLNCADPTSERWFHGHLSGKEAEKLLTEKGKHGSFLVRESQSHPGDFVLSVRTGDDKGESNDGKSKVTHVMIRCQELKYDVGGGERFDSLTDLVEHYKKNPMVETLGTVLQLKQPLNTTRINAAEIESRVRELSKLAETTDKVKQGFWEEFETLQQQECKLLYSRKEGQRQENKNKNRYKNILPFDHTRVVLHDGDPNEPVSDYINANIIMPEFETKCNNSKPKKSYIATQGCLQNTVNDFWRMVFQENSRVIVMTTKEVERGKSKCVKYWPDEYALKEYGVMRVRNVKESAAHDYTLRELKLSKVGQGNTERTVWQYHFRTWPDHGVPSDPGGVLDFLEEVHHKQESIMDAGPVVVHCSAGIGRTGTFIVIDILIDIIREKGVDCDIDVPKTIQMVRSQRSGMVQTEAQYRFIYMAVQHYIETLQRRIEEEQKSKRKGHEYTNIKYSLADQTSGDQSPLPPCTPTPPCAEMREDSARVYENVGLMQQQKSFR

[10] = biological target: Tyrosine-protein phosphatase non-receptor type 5 (Homo sapiens, UniProt P54829); assay: PTPN5 enzyme inhibition – biochemical, fluorescence intensity, uHTS hits, confirmation (AID 602372); format: functional; conditions: read-out: IC50_Mean
Sequence of Tyrosine-protein phosphatase non-receptor type 5 (P54829 whole entry): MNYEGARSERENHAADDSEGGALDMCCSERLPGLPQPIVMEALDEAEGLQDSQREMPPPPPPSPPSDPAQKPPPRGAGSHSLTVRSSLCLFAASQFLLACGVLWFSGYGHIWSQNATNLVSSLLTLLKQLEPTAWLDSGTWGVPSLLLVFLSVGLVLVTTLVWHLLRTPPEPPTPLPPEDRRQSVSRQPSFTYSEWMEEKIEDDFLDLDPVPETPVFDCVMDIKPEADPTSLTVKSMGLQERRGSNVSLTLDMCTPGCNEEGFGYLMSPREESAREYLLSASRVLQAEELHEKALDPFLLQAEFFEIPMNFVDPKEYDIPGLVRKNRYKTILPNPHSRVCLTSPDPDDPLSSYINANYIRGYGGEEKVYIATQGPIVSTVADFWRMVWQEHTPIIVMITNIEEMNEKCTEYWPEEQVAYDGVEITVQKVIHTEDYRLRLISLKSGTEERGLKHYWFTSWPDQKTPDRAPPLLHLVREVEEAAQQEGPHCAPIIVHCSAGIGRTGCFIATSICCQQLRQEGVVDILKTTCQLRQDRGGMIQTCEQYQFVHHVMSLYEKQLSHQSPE

[11] = biological target: Dual specificity protein phosphatase 3 (Homo sapiens, UniProt P51452); assay: VHR phosphatase inhibition, dose response, selectivity assay for STEP inhibitor project, biochemical (AID 602374); format: functional; conditions: read-out: IC50_Mean
Sequence of Dual specificity protein phosphatase 3 (P51452 whole entry): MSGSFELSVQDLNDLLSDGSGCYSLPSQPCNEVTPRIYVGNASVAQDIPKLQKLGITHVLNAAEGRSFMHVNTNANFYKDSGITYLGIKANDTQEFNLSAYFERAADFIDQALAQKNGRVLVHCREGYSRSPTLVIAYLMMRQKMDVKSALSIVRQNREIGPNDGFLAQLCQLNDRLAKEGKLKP

[12] = biological target: T6, Tyrosine-protein phosphatase non-receptor type 22 (Homo sapiens, UniProt Q9Y2R2); assay: lymphoid phosphatase LYP inhibitors – biochemical, selectivity assay for STEP inhibitor project, dose response (AID 624241); format: functional
T6 sequence (Q9Y2R2 whole entry): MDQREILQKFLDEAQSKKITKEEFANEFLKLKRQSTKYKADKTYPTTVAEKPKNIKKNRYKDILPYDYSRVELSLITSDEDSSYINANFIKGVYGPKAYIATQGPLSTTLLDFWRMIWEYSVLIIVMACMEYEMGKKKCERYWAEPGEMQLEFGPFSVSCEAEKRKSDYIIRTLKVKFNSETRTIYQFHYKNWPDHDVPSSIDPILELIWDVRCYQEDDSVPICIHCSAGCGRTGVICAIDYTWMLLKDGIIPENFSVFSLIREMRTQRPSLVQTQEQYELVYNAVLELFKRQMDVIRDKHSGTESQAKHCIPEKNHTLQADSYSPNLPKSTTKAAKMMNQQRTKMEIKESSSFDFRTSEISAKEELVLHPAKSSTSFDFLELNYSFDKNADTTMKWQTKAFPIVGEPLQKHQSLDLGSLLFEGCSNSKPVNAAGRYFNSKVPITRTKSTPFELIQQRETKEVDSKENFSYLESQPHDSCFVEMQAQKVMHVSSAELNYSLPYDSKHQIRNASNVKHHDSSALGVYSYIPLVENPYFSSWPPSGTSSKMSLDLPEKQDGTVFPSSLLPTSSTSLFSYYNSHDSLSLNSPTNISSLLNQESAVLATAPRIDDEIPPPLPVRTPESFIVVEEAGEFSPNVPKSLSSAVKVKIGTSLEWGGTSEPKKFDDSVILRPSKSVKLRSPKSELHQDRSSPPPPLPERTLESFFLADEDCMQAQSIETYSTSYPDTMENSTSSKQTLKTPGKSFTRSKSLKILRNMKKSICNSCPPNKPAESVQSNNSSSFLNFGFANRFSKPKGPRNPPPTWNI

Protein S100-A4 = Protein S100-A4 (Homo sapiens, UniProt P26447); assay: human S100A4 peptide interaction inhibition curves – biochemical, fluorescence polarization, cherry-picked hits, dose response (AID 687001); format: functional
Sequence of Protein S100-A4 (P26447 whole entry): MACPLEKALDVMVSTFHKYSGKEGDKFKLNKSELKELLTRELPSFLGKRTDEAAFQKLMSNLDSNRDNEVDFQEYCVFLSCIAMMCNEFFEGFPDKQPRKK

[13] = biological target: T7, Replicative DNA helicase DnaB (Mycobacterium tuberculosis, UniProt P9WMR3); assay: DnaB intein splicing inhibitors, dose response, biochemical, cell-free fluorescence (AID 449749); format: functional
T7 sequence (P9WMR3 whole entry): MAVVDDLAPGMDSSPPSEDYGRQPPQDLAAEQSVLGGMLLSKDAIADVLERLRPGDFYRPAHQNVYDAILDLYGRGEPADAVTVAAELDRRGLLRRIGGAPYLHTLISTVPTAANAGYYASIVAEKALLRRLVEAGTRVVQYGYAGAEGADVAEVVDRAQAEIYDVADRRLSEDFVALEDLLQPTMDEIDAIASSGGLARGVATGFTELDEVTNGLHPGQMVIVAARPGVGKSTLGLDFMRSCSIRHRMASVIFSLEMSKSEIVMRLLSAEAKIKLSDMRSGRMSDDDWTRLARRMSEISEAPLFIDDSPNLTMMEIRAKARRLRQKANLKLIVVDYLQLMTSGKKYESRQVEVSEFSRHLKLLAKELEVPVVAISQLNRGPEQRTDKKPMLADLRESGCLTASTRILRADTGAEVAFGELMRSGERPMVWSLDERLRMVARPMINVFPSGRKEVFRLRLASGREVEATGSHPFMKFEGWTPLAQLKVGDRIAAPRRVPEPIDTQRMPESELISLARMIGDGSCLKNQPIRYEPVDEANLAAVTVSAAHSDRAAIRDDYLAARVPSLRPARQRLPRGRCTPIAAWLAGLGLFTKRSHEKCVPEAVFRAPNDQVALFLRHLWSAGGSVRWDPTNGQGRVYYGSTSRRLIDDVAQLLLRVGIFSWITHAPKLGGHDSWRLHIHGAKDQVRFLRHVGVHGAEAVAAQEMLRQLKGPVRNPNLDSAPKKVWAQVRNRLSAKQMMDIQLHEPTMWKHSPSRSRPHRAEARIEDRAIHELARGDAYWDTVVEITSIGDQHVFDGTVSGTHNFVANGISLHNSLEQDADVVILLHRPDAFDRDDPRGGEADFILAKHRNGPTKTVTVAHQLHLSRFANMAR

Vero = assay: viability of Vero cells under compound – cytotoxicity control for flavivirus capping enzyme inhibitors (AID 588742); format: functional; conditions: Chlorocebus sabaeus
Protein RecA = biological target: T8, Protein RecA (Mycobacterium tuberculosis, UniProt P9WHJ3); assay: Fluorescence Cell-Free Homogeneous Dose Retest to Identify Inhibitors of RecA-Intein Splicing Activity. [Related pubchem assays (depositor defined):AID2097, AID2223, AID489010, AID492950]; format: functional
T8 sequence (P9WHJ3 whole entry): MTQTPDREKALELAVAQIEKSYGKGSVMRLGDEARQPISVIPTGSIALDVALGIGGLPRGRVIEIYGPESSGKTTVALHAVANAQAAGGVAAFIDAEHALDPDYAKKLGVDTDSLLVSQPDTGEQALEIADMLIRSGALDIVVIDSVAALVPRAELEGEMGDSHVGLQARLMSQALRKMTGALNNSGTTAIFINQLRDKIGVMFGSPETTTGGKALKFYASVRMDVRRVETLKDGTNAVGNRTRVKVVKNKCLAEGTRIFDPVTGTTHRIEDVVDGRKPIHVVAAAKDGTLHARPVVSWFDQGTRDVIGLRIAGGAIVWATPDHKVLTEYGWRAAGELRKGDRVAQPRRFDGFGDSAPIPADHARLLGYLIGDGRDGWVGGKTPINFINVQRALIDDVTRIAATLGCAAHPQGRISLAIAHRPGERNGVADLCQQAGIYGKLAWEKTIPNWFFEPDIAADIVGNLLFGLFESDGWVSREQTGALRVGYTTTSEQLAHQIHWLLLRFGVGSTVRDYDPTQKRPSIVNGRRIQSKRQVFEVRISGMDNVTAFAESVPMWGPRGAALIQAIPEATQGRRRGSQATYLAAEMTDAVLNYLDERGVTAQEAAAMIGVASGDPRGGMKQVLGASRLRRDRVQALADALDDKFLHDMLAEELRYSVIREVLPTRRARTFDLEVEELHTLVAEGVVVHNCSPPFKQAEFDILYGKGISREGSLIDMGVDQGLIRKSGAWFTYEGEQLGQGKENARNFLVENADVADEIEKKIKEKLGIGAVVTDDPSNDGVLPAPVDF

[14] = biological target: T9, Sentrin-specific protease 8 (Homo sapiens, UniProt Q96LD8); format: functional
T9 sequence (Q96LD8 whole entry): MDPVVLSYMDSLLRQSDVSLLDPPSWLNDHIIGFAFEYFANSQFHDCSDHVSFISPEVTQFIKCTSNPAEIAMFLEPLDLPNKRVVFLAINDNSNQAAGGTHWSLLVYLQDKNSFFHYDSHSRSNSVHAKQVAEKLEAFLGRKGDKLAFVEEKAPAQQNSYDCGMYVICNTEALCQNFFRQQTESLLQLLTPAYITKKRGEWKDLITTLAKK

[15] = biological target: T9, Sentrin-specific protease 8; format: functional; remark: listed apart in the source
Caspase-3 = biological target: T10, Caspase-3 (Homo sapiens, UniProt P42574); assay: Dose-response confirmation of uHTS inhibitor hits of Sentrin-Specific Protease 8 in a Caspase-3 Fluorescence assay.; format: functional
T10 sequence (P42574 whole entry): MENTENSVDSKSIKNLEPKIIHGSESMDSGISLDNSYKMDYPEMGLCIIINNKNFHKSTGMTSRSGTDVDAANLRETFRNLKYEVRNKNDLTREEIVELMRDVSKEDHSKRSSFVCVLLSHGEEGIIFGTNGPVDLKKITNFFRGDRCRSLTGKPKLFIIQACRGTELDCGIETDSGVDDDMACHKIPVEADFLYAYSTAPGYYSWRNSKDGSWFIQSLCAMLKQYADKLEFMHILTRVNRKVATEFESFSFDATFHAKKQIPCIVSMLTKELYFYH

Sequence of Beta-lactamase (Salmonella choleraesuis (strain SC-B67), UniProt Q5J463) (Q5J463 whole entry): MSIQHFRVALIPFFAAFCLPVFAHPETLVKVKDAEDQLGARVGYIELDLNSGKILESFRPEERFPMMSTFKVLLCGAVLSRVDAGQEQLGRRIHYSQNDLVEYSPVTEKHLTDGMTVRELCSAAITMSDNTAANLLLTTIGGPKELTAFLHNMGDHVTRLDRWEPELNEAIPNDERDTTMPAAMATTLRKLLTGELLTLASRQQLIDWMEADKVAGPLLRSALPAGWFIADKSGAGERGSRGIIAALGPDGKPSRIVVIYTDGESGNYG

O=C(C1=C(O)C(=O)N(Cc2cccnc2)C1c1ccccn1)c1cccs1 (stereo unspecified)
IC50 (Beta-lactamase [1]): > 59.6 µM (inactive)
IC50 (Beta-lactamase [2]): > 59.6 µM (inactive)
IC50 (Beta Lactamase [3]): 13.2 µM (inactive)
IC50 (Beta-lactamase [4]): > 59.6 µM (inactive)
IC50 (Beta Lactamase [5]): 4.83 µM (active)

Cc1ccc(S(=O)(=O)Cc2ccc(C(=O)O)o2)cc1
IC50 (Bcl-2-like protein 10): 16 µM (active)
IC50 (Estrogen receptor): 18.1 µM (active)
IC50 (Estrogen receptor beta [6]): 5.22 µM (active)
IC50 (Estrogen receptor beta [7]): < 0.023 µM (not active)
IC50 [8]: 3.66 µM (active)
IC50 [9]: 0.776 µM (active)
IC50 [10]: 23.4 µM (inactive)
IC50 [11]: 1.03 µM (active)
IC50 [12]: 21.8 µM (inactive)

CN(C)c1ccc(C=Cc2nccc3ccccc23)cc1
AC50 (Protein S100-A4): 0.774 µM (active)

COc1ccc(/C=N/NC(=O)c2nn(-c3ccc(Cl)cc3)c(=O)c3c(N)scc23)cc1
AC50 [13]: > 380 µM (inactive)
CC50 (Vero): 22 µM (active)
EC50 (Protein RecA): 4.62 µM (active)
IC50 [14]: 2.03 µM (active)
IC50 [15]: 0.967 µM (active)
IC50 (Caspase-3): 11.9 µM (active)
